From patent publication US20250387425A1 (ANDA BIOLOGY MEDICINE DEVELOPMENT (SHENZHEN) CO., LTD., priority 2022, published 2025)

Columns and labels:
MX1 = experiment: Knock down of MX1 in PBMCs by siRNA, qPCR and tumor killing; type: cell-based, human; details: MX1 depletion by siRNA vs negative control oligonucleotides
Experimental: PBMCs were cultured in X-VIVO 15 medium (Lonza) supplemented with 10% Fetal Bovine Serum (Gemini), Penicillin-Streptomycin (Gibco), Antibiotic-Antimycotic (Gibco), 20 ng/ml recombinant human IL-7 (R&D), 50 U/ml recombinant human IL-2 (R&D) for one week. Then, TransIT-TKO kit (Mirus) was used to transient transfect MX1 siRNA into PBMCs. After 3 days of culture at 37° C., PBMCs were collected. A part of PBMCs co-incubated with tumor cells to test the killing effect of PBMCs after siRNA interference. The other part of PBMCs was extracted RNA with AllPrep DNA/RNA Kits (QIAGEN) and reverse transcription to cDNA with PrimeScript RT reagent Kit (Takara), and then used NovoStart SYBR qPCR SuperMix Plus (Novoprotein) performs qPCR to verify the efficiency of siRNA interference. The relative expressions of MX1 gene at the mRNA level was calculated by the 2-ΔΔCt method. GAPDH was used as a housekeeping gene.

[1] = tested on: neoantigen-specific T-cell clones in blood; experiment: DNA-barcoded neoantigen-peptide-MHC tetramers with single-cell TCR sequencing (patient P6); type: cell-based, human; details: blood of patient P6

5′-GCTTTGTGAATTACAGGACAT-3′ (only one strand given, further chemistry not given here) [MX1 siRNA, siRNA transiently transfected into PBMCs to knock down MX1]
anti-tumor ability of immune cells in PBMC (MX1): remarkably impaired

YVECGKAFK [neoantigen-peptide-85-epitopel]
tetramer-positive T-cell clones (peptide-MHC HLA-A*11:01 tetramer) [1]: No tetramer-positive T-cell clones
